The numbers were not newly measured in article PMC8397425, “A Strategy to Conjugate Bioactive Fragments to Cytotoxic Diiron Bis(cyclopentadienyl) Complexes” (Organometallics, 2021), which cites them from elsewhere.

pIC50: −log10 of the molar value. Bounds are passed on as bounds.

The subject of one data set is cancer cell lines. To be noted: cited from earlier work.
The subject of data set [1] is Human Ovarian Carcinoma (A2780) cell line. To be noted: 72 h exposure; cited from earlier work.
The test system of data set [2] is Human Ovarian Carcinoma Cisplatin Resistant (A2780cisR) cell line. Particulars: 72 h exposure; cited from earlier work.
For data set [3], the system named is Human Embryonic Kidney 293T (HEK 293T) cell line. To be noted: 72 h exposure; cited from earlier work.

On to `C#CCOC(=O)c1ccccc1OC(C)=O` [ALK^A1], for which, in the data set on cancer cell lines, the “activity toward cancer cell lines” value is listed as “absence of activity”.
With `CC(=O)Oc1ccccc1C(=O)O` [aspirin, acetylsalicylic acid], the pIC50 in data set [1], in data set [2] and in data set [3] was less than 3.70 throughout.
